The text below walks through data of US11174268B2, “Benzenesulfonamide compouds and their use as therapeutic agents” (Xenon Pharmaceuticals Inc., priority 2016, dated 2021).

Counter-ions that a name gives are not always drawn. Like-named read-outs stand apart in the source and are kept apart here. Where only a bound is given, the exact number is not on record here.

For one data set, the target named is NaV1.5 (Homo sapiens (Human), UniProt Q14524). The data set can be described thus: Sodium Influx Assay (Flux), NaV1.5.
The target of data set [1] is T1, NaV1.1 (Homo sapiens (Human), UniProt P35498). In words: Electrophysiological Assay (EP), patch voltage clamp, NaV1.1.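 Note: sodium current block measured at ambient temperature, holding at fully inactivating potential, 20 ms repolarization to −150 mV before test pulse, versus 0.5% DMSO control currents.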 Type of data set: cell-based. As to conditions: HEK-293 cells, whole-cell patch clamp. (The patch-clamp technique gives a direct electrical read-out from membranes.)
For data set [2], the target named is T2, NaV1.6 (Homo sapiens (Human), UniProt Q9UQD0). The data set can be described thus: Electrophysiological Assay (EP), patch voltage clamp, NaV1.6.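 Note: sodium current recorded at ambient temperature, channels held inactivated then briefly repolarized to −150 mV for 20 ms before a test pulse, control currents in 0.5% DMSO.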 It counts as cell-based. As to conditions: HEK-293 cells, whole-cell patch clamp.
For data set [3], the target named is T2, NaV1.6. In words: Sodium Influx Assay (Flux), NaV1.6.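 Note: Tetracycline-induced cells, compounds applied for one hour at room temperature with modulators holding channels open, IC50 from percent inhibition of sodium influx.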 It counts as cell-based. To be noted: Trex HEK293 cells, ANG2 dye, inactivated state.
For data set [4], the target named is T1, NaV1.1. The data set can be described thus: Sodium Influx Assay (Flux), NaV1.1.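 Note: channels co-expressed with human β1 subunit and held open by modulators, cells exposed to compounds for one hour at room temperature, IC50 from percent inhibition of influx.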 It counts as cell-based. As to conditions: Trex HEK293 cells, ANG2 dye, inactivated state.
Where [5] appears, read: read-out: Flux NaV1.5 IC50, Trex HEK293 cells, ANG2 dye, inactivated state.

T2 sequence (Q9UQD0 whole entry): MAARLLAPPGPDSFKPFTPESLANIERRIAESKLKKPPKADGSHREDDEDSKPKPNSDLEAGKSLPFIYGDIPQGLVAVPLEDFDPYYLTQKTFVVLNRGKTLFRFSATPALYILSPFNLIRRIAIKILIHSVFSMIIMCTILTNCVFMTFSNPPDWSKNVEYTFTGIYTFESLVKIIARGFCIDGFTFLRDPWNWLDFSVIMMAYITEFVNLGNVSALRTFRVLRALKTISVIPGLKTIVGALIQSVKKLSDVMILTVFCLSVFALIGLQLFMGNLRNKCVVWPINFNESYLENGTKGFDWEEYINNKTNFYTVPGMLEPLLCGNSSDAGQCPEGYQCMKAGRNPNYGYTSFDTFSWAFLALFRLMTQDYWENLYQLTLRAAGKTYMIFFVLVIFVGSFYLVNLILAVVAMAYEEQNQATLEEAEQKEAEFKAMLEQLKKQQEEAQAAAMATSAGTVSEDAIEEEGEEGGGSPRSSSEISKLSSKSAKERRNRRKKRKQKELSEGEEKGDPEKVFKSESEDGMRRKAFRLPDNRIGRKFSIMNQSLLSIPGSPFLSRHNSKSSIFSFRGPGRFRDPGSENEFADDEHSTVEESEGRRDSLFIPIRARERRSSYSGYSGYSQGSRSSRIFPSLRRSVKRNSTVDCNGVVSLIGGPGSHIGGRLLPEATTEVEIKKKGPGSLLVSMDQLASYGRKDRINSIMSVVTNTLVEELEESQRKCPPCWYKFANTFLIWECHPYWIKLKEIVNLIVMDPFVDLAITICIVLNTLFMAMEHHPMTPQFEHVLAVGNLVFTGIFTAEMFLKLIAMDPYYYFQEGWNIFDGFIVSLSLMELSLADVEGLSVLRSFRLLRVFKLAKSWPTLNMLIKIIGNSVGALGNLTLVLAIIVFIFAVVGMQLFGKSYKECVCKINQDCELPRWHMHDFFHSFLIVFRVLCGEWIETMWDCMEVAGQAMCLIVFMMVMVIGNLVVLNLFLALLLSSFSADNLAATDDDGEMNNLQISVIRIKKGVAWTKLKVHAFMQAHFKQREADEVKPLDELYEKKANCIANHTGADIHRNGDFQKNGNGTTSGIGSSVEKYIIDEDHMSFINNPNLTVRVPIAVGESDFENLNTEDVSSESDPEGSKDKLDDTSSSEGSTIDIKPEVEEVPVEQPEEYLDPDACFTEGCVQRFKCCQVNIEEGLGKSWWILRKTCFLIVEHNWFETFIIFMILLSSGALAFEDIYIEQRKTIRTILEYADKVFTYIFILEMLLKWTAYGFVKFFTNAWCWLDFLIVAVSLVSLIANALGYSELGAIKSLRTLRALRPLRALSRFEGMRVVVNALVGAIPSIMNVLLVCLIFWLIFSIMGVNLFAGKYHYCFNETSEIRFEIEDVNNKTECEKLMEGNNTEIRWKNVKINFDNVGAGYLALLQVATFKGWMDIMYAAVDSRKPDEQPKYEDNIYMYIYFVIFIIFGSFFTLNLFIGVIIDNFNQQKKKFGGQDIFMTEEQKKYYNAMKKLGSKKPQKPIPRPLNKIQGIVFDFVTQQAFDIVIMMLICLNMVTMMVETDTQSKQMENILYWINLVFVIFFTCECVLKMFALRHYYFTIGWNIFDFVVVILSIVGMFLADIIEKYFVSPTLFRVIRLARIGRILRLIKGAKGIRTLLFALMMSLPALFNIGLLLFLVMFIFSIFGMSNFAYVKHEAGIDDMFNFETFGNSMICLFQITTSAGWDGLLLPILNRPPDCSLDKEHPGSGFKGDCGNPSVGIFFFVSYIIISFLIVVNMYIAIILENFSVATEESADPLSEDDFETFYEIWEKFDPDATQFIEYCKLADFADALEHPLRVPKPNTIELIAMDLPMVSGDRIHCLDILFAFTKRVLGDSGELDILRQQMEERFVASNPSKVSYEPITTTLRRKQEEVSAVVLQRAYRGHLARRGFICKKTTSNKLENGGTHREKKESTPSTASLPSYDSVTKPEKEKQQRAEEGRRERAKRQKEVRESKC
NaV1.5, sequence (Q14524 other isoform, or with tags, fused parts or gaps): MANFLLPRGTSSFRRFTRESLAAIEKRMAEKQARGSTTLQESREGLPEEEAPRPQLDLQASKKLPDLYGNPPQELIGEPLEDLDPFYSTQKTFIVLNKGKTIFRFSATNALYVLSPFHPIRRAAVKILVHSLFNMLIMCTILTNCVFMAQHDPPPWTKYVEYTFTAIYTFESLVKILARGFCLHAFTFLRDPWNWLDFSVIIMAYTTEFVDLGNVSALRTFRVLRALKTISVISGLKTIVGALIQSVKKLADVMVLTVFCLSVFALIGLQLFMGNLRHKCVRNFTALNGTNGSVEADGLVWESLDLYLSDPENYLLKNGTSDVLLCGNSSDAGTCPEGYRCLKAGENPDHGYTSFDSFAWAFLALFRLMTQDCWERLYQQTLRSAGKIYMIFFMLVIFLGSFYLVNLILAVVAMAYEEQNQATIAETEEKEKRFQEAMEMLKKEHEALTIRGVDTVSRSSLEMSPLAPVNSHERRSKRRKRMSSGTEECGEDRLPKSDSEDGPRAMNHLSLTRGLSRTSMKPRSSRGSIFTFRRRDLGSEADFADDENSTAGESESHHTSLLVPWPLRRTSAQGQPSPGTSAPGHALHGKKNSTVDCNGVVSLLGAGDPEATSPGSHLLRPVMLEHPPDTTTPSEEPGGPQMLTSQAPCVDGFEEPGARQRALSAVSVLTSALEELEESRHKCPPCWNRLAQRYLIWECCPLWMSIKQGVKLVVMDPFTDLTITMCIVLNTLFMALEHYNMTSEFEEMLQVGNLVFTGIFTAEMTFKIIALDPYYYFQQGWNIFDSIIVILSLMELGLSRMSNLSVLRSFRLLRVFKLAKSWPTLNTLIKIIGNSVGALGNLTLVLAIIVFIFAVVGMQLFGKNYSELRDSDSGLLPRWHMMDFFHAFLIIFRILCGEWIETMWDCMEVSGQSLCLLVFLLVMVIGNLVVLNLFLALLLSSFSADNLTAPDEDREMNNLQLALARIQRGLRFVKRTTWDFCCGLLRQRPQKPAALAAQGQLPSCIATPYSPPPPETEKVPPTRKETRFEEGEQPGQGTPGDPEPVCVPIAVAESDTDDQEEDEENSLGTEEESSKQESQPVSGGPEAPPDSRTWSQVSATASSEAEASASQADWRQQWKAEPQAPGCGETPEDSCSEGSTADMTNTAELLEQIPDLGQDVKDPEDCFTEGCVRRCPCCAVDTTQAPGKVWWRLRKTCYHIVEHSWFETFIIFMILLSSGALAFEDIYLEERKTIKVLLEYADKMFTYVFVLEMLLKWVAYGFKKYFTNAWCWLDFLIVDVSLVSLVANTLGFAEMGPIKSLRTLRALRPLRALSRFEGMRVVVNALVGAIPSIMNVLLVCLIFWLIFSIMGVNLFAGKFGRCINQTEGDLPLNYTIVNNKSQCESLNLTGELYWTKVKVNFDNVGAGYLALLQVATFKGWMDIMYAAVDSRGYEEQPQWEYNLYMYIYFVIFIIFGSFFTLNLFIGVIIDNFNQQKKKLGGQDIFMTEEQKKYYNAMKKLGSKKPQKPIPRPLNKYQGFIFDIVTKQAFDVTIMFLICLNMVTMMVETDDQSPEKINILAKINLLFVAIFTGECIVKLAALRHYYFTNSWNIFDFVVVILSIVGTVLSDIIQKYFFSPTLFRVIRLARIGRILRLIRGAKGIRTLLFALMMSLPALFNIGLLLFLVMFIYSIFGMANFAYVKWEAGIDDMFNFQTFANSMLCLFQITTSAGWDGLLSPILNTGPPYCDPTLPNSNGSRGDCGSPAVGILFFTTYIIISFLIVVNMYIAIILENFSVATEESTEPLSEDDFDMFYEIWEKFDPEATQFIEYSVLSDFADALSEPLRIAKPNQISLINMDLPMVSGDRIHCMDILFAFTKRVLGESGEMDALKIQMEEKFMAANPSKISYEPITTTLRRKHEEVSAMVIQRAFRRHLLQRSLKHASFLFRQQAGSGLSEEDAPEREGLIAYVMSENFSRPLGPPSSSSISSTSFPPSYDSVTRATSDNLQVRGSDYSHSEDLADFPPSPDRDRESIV

Take `O=S(=O)(Nc1cscn1)c1ccc(NCc2c(F)cccc2CN2CC(F)C2)c(Cl)c1F` [Example 133, 3-chloro-2-fluoro-4-((2-fluoro-6-((3-fluoroazetidin-1-yl)methyl)benzyl)amino)-N-(thiazol-4-yl)benzenesulfonamide]: the IC50 on NaV1.5 (setting [5]) is 9.21 µM; on NaV1.1 [1] it was 10 µM; at NaV1.6 [2], 0.122 µM; on NaV1.6 [3], 0.418 µM; on NaV1.1 [4] it was 6.36 µM.

On to `O=S(=O)(Nc1nccs1)c1cc(Cl)c(OCc2ccccc2CN2CCC2)cc1F` [Example 136, 4-((2-(azetidin-1-ylmethyl)benzyl)oxy)-5-chloro-2-fluoro-N-(thiazol-2-yl)benzenesulfonamide], for which the IC50 at NaV1.5 (setting [5]) was found to be 23.7 µM; at NaV1.1 [1] it was 10 µM; at NaV1.6 [2], 0.041 µM; on NaV1.6 [3], 0.384 µM; against NaV1.1 [4] it was 19.6 µM.

Regarding `Cc1cc(S(=O)(=O)Nc2cscn2)c(F)cc1NCc1c(F)cccc1CN1CC(F)C1` [Example 137, 2-fluoro-4-((2-fluoro-6-((3-fluoroazetidin-1-yl)methyl)benzyl)amino)-5-methyl-N-(thiazol-4-yl)benzenesulfonamide], the IC50 was determined as 30 µM at NaV1.5 (setting [5]); 10 µM on NaV1.1 [1]; 0.353 µM at NaV1.6 [2]; 0.588 µM on NaV1.6 [3]; 30 µM against NaV1.1 [4].

For `O=S(=O)(Nc1cccc(F)n1)c1cc(Cl)c(NCc2c(F)cccc2CN2CCC2)cc1F` [Example 138, 4-((2-(azetidin-1-ylmethyl)-6-fluorobenzyl)amino)-5-chloro-2-fluoro-N-(6-fluoropyridin-2-yl)benzenesulfonamide], the IC50 was found to be 9.85 µM on NaV1.5 (setting [5]); 10 µM at NaV1.1 [1]; 0.043 µM against NaV1.6 [2]; 0.151 µM against NaV1.6 [3]; 5.76 µM at NaV1.1 [4].

Consider `CCC(Nc1cc(F)c(S(=O)(=O)Nc2nccs2)cc1Cl)c1ccccc1` (centres unmarked) [Example 141, 5-chloro-2-fluoro-4-(1-phenylpropylamino)-N-(thiazol-2-yl)benzenesulfonamide], for which the IC50 against NaV1.5 turned out to be 21 µM; against NaV1.1 [1] it was 0.277 µM; against NaV1.6 [2], 0.031 µM; at NaV1.6 [3], 0.479 µM; at NaV1.1 [4], 3.33 µM.

As for `CC(C)CC(Nc1cc(F)c(S(=O)(=O)Nc2nccs2)cc1Cl)c1ccccc1` (centres unmarked) [Example 143, 5-chloro-2-fluoro-4-(3-methyl-1-phenylbutylamino)-N-(thiazol-2-yl)benzenesulfonamide], the IC50 on NaV1.5 amounted to 7.01 µM; on NaV1.1 [1], 0.159 µM; against NaV1.6 [2] it was 0.027 µM; against NaV1.6 [3], 0.528 µM; against NaV1.1 [4], 2.49 µM.

As to `O=S(=O)(Nc1cscn1)c1c(F)cc(NCc2c(F)cccc2CN2CC3(CCO3)C2)cc1F` [Example 156, 4-((2-((1-oxa-6-azaspiro[3.3]heptan-6-yl)methyl)-6-fluorobenzyl)amino)-2,6-difluoro-N-(thiazol-4-yl)benzenesulfonamide formate], the IC50 on NaV1.5 (setting [5]) stood at 30 µM; on NaV1.1 [1], 10 µM; against NaV1.6 [2], 0.022 µM; at NaV1.6 [3] it was 0.146 µM; at NaV1.1 [4] it was 24.8 µM.

Take `C[C@H](Nc1ccc(S(=O)(=O)Nc2ccncn2)c(F)c1Cl)c1ccccc1Cl` [Example 191, (S)-3-chloro-4-((1-(2-chlorophenyl)ethyl)amino)-2-fluoro-N-(pyrimidin-4-yl)benzenesulfonamide]: the IC50 on NaV1.5 (setting [5]) is 20 µM; on NaV1.1 [1], 10 µM; on NaV1.6 [2], 0.112 µM; on NaV1.6 [3], 0.244 µM; against NaV1.1 [4], 18.2 µM.

In the case of `O=S(=O)(Nc1cscn1)c1ccc(NCc2c(F)cccc2CN2CCC2)c(Cl)c1F` [Example 192, 4-((2-(azetidin-1-ylmethyl)-6-fluorobenzyl)amino)-3-chloro-2-fluoro-N-(thiazol-4-yl)benzenesulfonamide formate], the IC50 at NaV1.5 (setting [5]) was found to be 8.51 µM; on NaV1.1 [1], 10 µM; on NaV1.6 [2], 0.015 µM; against NaV1.6 [3], 0.072 µM; on NaV1.1 [4] it was 16.2 µM.

Consider `O=S(=O)(Nc1cscn1)c1c(F)cc(NCc2c(F)cccc2CN2CC(F)C2)cc1F` [Example 194, 2,6-difluoro-4-((2-fluoro-6-((3-fluoroazetidin-1-yl)methyl)benzyl)amino)-N-(thiazol-4-yl)benzenesulfonamide formate], for which the IC50 at NaV1.5 (setting [5]) amounted to 30 µM; on NaV1.1 [1], 10 µM; against NaV1.6 [2], 0.043 µM; against NaV1.6 [3], 0.227 µM; against NaV1.1 [4], 8.54 µM.

For `C[C@H](Nc1cc(F)c(S(=O)(=O)Nc2ccncn2)c(F)c1)c1cc(Cl)ccc1F` [Example 206, (S)-4-((1-(5-chloro-2-fluorophenyl)ethyl)amino)-2,6-difluoro-N-(pyrimidin-4-yl)benzenesulfonamide 2,2,2-trifluoroacetate], the IC50 at NaV1.5 (setting [5]) came to 30 µM; at NaV1.1 [1], 10 µM; against NaV1.6 [2], 0.076 µM; on NaV1.6 [3], 0.448 µM; against NaV1.1 [4] it was 7.05 µM.

Regarding `C[C@H](Nc1cc(F)c(S(=O)(=O)Nc2cscn2)c(F)c1)c1cc(Cl)ccc1F` [Example 207, (S)-4-((1-(5-chloro-2-fluorophenyl)ethyl)amino)-2,6-difluoro-N-(thiazol-4-yl)benzenesulfonamide 2,2,2-trifluoroacetate], the IC50 on NaV1.5 (setting [5]) was 9.57 µM; against NaV1.1 [1] it was 8.13 µM; on NaV1.6 [2], 0.121 µM; against NaV1.6 [3] it was 0.413 µM; against NaV1.1 [4], 4.38 µM.

Regarding `COc1cccc(CN2CCC2)c1CNc1cc(F)c(S(=O)(=O)Nc2cscn2)c(F)c1` [Example 209, 4-((2-(azetidin-1-ylmethyl)-6-methoxybenzyl)amino)-2,6-difluoro-N-(thiazol-4-yl)benzenesulfonamide 2,2,2-trifluoroacetate], the IC50 on NaV1.5 (setting [5]) is 30 µM; against NaV1.1 [1], 10 µM; against NaV1.6 [2] it was 0.076 µM; against NaV1.6 [3], 0.317 µM; against NaV1.1 [4] it was 27.3 µM.

As to `O=S(=O)(Nc1cscn1)c1cc(Cl)c(NC2(c3cc(F)ccc3F)CC2)cc1F` [Example 225, 5-chloro-4-((1-(2,5-difluorophenyl)cyclopropyl)amino)-2-fluoro-N-(thiazol-4-yl)benzenesulfonamide], the IC50 at NaV1.5 (setting [5]) came out at 4.47 µM; against NaV1.1 [1] it was 10 µM; against NaV1.6 [2] it was 0.742 µM; on NaV1.6 [3] it was 2 µM; on NaV1.1 [4] it was 9.82 µM.

Consider `C[C@H](Nc1cc(F)c(S(=O)(=O)Nc2cnccn2)cc1Cl)c1cc(Cl)ccc1F` [Example 243], for which the IC50 against NaV1.5 is no less than 30 µM; against NaV1.1 [1], 10 µM; against NaV1.6 [2] it was 6.25 µM; on NaV1.6 [3] it was 8.68 µM; against NaV1.1 [4], no less than 30 µM.

Regarding `O=S(=O)(Nc1cscn1)c1cc(Cl)c(NCc2c(F)cccc2CN2CC(F)C2)cc1F` [Example 247, 5-chloro-2-fluoro-4-((2-fluoro-6-((3-fluoroazetidin-1-yl)methyl)benzyl)amino)-N-(thiazol-4-yl)benzenesulfonamide], the IC50 is 30 µM on NaV1.5 (setting [5]); 10 µM at NaV1.1 [1]; 0.409 µM at NaV1.6 [2]; 6.16 µM on NaV1.6 [3]; 25.3 µM against NaV1.1 [4].

Usually IC50 stands for the concentration at which inhibition is half-maximal.
